This is an account of results in US20140288026A1, “IN[…]” (MAGNA E[…]., priority 2011, published 2014).

This series in a line: Hydrolysis of dilute aqueous insecticide solution (EPA OPPT 835.2130 Hydrolysis as a Function of pH and Temperature). Type of series: physicochemical. The conditions noted are these: for Bifenthrin remaining: same solution plus 220ppm polymer particles (55% solids vinyl acetate-ethylene copolymer latex, Tg 10° C.). On the procedure:
In fact, we have made dilute aqueous solutions of Bifenthrin (0.0895 ppm at pH 11.0) in accordance with EPA Fate, Transport and Transformation Test Guidelines OPPT 835.2130 Hydrolysis as a Function of pH and Temperature. After 5 hours at 25° C. only 45% of the insecticide could be detected in the solution and after 15 hours only 12% remained.

Regarding `Cc1c(COC(=O)[C@@H]2[C@H](/C=C(\Cl)C(F)(F)F)C2(C)C)cccc1-c1ccccc1` (racemic) [Bifenthrin], the “insecticide detected in the solution” value (0.0895 ppm aqueous solution at pH 11.0, 25° C., after 5 hours, no polymer particles) came out at 45%. In addition, where the note is “0.0895 ppm aqueous solution at pH 11.0, 25° C., after 15 hours, no polymer particles”, the “insecticide remaining in the solution” value was 12%. Further, the Bifenthrin remaining was 95% (after 5 hours) and 93% (after 15 hours).
